Experimental data published in publication PMC5529566, “The cryo-EM structure of gastric H^+,K^+-ATPase with bound BYK99, a high-affinity member of K^+-competitive, imidazo[1,2-a]pyridine inhibitors” (Scientific Reports, 2017).
Values joined by “and” are separate entries in the source; they are usually repeats but may differ in a detail not shown here. Equal entries are not always repeated.

Key:
[1] = molecular target: H^+,K^+-ATPase A335C/C813A; design: method as in PMID 12379118; details: cited from earlier work
H^+,K^+-ATPase Y799A [2] = test system: H^+,K^+-ATPase Y799A; design: method as in PMID 14699149; details: Y799A vs wild-type; cited from earlier work
H^+,K^+-ATPase Y799F [3] = test system: H^+,K^+-ATPase Y799F; design: method as in PMID 14699149; details: cited from earlier work
[4] = pKa and protonation of imidazo[1,2-a]pyridine; assay type: physicochemical; details: at pH 7.0 of the ATPase assays
H^+,K^+-ATPase L809F [5] = details: cited from earlier work
H^+,K^+-ATPase D136L = H^+,K^+-ATPase D136L (Sus scrofa, UniProt P19156, D137L); test: ATPase assay, D136L mutant
H^+,K^+-ATPase Y799F [6] = molecular target: H^+,K^+-ATPase Y799F (Sus scrofa, UniProt P19156, Y800F); test: ATPase assay, Y799F mutant
H^+,K^+-ATPase D137A = H^+,K^+-ATPase D137A (Sus scrofa, UniProt P19156, D138A); test: ATPase assay, D137A mutant
H^+,K^+-ATPase Y140L = H^+,K^+-ATPase Y140L (Sus scrofa, UniProt P19156, Y141L); test: ATPase assay, Y140L mutant
H^+,K^+-ATPase N138F = H^+,K^+-ATPase N138F (Sus scrofa, UniProt P19156, N139F); test: ATPase assay, N138F mutant
H^+,K^+-ATPase L139I = H^+,K^+-ATPase L139I (Sus scrofa, UniProt P19156, L140I); test: ATPase assay, L139I mutant
H^+,K^+-ATPase L139F = H^+,K^+-ATPase L139F (Sus scrofa, UniProt P19156, L140F); test: ATPase assay, L139F mutant
H^+,K^+-ATPase A335G = H^+,K^+-ATPase A335G (Sus scrofa, UniProt P19156, A336G); test: ATPase assay, A335G mutant
H^+,K^+-ATPase N138I = H^+,K^+-ATPase N138I (Sus scrofa, UniProt P19156, N139I); test: ATPase assay, N138I mutant
Sequence of H^+,K^+-ATPase N138I (P19156 whole entry N139I): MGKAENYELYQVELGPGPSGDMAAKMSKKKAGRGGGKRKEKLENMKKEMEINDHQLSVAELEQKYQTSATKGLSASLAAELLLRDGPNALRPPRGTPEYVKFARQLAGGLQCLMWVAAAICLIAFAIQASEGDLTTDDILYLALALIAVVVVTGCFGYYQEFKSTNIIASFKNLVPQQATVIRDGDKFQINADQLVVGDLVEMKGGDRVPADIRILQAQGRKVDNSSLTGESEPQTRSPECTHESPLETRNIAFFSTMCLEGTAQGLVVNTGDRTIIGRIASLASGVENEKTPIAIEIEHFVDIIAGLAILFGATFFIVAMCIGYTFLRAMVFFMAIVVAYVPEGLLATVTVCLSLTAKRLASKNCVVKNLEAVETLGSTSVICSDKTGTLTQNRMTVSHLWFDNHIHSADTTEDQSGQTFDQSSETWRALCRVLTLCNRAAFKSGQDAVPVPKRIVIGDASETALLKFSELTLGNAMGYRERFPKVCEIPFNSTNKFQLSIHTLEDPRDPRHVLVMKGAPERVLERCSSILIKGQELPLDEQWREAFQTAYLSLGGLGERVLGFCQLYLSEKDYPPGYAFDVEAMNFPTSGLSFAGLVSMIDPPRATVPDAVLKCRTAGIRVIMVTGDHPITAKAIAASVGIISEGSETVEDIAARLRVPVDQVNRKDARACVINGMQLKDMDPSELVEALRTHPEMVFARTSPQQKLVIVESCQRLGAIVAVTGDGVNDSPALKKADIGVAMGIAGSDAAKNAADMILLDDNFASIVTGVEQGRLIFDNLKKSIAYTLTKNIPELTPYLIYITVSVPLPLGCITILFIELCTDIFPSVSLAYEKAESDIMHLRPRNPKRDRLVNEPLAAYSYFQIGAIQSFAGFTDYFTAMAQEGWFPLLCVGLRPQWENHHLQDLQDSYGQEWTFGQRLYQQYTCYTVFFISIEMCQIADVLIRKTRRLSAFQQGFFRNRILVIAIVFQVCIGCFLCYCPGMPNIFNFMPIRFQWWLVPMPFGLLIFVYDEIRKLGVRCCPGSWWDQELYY
Sequence of H^+,K^+-ATPase N138I (P18434 whole entry partner): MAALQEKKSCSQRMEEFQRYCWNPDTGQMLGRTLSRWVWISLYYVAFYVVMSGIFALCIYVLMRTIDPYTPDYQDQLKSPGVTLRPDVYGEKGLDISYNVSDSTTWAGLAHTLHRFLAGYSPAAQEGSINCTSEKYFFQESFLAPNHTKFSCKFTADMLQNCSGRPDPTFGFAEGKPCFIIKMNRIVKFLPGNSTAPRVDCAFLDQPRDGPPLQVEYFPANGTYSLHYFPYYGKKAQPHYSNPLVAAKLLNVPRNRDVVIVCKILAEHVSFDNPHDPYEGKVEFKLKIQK

H^+,K^+-ATPase D136F = H^+,K^+-ATPase D136F (Sus scrofa, UniProt P19156, D137F); test: ATPase assay, D136F mutant
H^+,K^+-ATPase L141I = H^+,K^+-ATPase L141I (Sus scrofa, UniProt P19156, L142I); test: ATPase assay, L141I mutant
H^+,K^+-ATPase D136I = H^+,K^+-ATPase D136I (Sus scrofa, UniProt P19156, D137I); test: ATPase assay, D136I mutant
H^+,K^+-ATPase D137I = H^+,K^+-ATPase D137I (Sus scrofa, UniProt P19156, D138I); test: ATPase assay, D137I mutant
H^+,K^+-ATPase Y140I = H^+,K^+-ATPase Y140I (Sus scrofa, UniProt P19156, Y141I); test: ATPase assay, Y140I mutant
H^+,K^+-ATPase = H^+,K^+-ATPase (Sus scrofa, UniProt P19156); test: Dose-dependent inhibition of H^+,K^+-ATPase activity in the presence of 10 mM KCl
Protocol: Reactions were initiated by incubating at 37 °C using a thermal cycler, and maintained for 1 to 5 h (depending on the activity). Reactions were terminated by withdrawing 40 μL from the 80 μL reactant, and mixing with 80 μL of stop solution comprising 6% ascorbic acid and 2% ammonium molybdate in 1 N HCl, followed by the addition of 120 μL of 2% sodium arsenate, 2% sodium citrate, and 2% acetic acid. The amount of released inorganic phosphate was determined colorimetrically[39] from absorbance at 850 nm by the microplate reader (TECAN).

H^+,K^+-ATPase L139A = H^+,K^+-ATPase L139A (Sus scrofa, UniProt P19156, L140A); test: ATPase assay, L139A mutant
Sequence of H^+,K^+-ATPase L139A (P19156 whole entry L140A): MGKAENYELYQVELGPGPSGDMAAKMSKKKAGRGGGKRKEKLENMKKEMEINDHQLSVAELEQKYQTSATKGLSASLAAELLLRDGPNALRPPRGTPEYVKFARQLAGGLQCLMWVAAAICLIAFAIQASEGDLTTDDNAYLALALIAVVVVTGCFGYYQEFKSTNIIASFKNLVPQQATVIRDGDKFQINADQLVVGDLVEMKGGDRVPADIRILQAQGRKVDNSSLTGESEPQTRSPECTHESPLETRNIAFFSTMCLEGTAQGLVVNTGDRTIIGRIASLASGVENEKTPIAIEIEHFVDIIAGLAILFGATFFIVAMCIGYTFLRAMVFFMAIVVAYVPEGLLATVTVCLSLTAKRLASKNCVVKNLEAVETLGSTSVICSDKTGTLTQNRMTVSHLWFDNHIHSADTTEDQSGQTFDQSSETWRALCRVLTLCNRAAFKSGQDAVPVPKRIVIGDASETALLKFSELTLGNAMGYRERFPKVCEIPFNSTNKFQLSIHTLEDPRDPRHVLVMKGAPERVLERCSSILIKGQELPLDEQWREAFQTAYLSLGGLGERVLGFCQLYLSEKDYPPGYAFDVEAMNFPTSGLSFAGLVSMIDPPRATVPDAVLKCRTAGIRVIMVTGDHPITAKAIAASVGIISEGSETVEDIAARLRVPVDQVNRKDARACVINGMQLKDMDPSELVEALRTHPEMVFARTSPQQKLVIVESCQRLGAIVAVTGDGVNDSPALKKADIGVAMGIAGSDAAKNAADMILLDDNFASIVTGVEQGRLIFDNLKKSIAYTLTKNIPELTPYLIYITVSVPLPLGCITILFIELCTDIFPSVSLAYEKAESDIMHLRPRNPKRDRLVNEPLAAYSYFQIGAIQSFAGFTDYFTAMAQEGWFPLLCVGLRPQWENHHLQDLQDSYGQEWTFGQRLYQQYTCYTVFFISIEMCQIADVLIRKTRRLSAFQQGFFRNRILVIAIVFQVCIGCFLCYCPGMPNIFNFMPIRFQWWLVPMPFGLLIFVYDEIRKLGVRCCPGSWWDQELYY
Sequence of H^+,K^+-ATPase L139A (P18434 whole entry partner): as the sequence (P18434 whole entry partner) above

H^+,K^+-ATPase WT = molecular target: T1, H^+,K^+-ATPase WT (Sus scrofa, UniProt P19156); test: K^+-competitive inhibition of H^+,K^+-ATPase activity, 96-well ATPase assay, wild-type; assay type: biochemical, pig; details: WT
T1 construct: made in house; host or cells: HEK293S GnT1- cells (BacMam baculovirus transduction); permeabilised membrane fractions

[7] = molecular target: H^+,K^+-ATPase A335C/C813A (Sus scrofa, UniProt P19156, A336C/C814A); test: ATPase assay, A335C/C813A mutant
H^+,K^+-ATPase N138A = H^+,K^+-ATPase N138A (Sus scrofa, UniProt P19156, N139A); test: ATPase assay, N138A mutant
Sequence of H^+,K^+-ATPase N138A (P19156 whole entry N139A): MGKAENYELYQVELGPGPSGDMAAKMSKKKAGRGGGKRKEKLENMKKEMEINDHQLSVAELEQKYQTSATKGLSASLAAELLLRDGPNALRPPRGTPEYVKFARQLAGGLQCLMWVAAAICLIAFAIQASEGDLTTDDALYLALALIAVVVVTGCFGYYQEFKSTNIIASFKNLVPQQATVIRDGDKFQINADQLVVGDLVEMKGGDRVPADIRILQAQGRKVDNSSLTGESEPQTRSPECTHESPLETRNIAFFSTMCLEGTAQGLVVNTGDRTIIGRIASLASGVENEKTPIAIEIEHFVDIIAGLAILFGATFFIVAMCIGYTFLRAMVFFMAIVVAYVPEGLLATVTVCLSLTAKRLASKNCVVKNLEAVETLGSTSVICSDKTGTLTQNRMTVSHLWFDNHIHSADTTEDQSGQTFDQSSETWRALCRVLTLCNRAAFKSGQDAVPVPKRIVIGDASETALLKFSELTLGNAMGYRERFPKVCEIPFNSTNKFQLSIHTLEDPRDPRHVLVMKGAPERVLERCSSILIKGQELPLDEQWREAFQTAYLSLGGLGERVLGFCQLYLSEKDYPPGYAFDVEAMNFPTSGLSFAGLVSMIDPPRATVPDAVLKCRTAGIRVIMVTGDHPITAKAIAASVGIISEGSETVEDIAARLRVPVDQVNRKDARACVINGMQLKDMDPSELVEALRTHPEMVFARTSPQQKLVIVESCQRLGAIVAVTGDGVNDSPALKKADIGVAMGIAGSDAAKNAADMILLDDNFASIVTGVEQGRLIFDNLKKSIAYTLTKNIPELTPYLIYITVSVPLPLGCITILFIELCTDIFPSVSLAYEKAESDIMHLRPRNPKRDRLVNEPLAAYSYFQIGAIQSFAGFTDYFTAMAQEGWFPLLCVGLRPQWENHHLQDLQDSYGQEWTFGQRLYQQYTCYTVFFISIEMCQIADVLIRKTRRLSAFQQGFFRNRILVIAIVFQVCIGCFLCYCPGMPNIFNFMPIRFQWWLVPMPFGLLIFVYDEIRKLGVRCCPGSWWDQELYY
Sequence of H^+,K^+-ATPase N138A (P18434 whole entry partner): as the sequence (P18434 whole entry partner) above

H^+,K^+-ATPase N138L = H^+,K^+-ATPase N138L (Sus scrofa, UniProt P19156, N139L); test: ATPase assay, N138L mutant
H^+,K^+-ATPase D137L = H^+,K^+-ATPase D137L (Sus scrofa, UniProt P19156, D138L); test: ATPase assay, D137L mutant
H^+,K^+-ATPase Y140A = H^+,K^+-ATPase Y140A (Sus scrofa, UniProt P19156, Y141A); test: ATPase assay, Y140A mutant
H^+,K^+-ATPase Y140F = H^+,K^+-ATPase Y140F (Sus scrofa, UniProt P19156, Y141F); test: ATPase assay, Y140F mutant
H^+,K^+-ATPase L809F [8] = molecular target: H^+,K^+-ATPase L809F (Sus scrofa, UniProt P19156, L810F); test: ATPase assay, L809F mutant
H^+,K^+-ATPase D136A = H^+,K^+-ATPase D136A (Sus scrofa, UniProt P19156, D137A); test: ATPase assay, D136A mutant
H^+,K^+-ATPase D137F = H^+,K^+-ATPase D137F (Sus scrofa, UniProt P19156, D138F); test: ATPase assay, D137F mutant
H^+,K^+-ATPase Y799A [9] = molecular target: H^+,K^+-ATPase Y799A (Sus scrofa, UniProt P19156, Y800A); test: ATPase assay, Y799A mutant
Sequence of H^+,K^+-ATPase Y799A (Sus scrofa, UniProt P19156, Y800A) (P19156 whole entry Y800A): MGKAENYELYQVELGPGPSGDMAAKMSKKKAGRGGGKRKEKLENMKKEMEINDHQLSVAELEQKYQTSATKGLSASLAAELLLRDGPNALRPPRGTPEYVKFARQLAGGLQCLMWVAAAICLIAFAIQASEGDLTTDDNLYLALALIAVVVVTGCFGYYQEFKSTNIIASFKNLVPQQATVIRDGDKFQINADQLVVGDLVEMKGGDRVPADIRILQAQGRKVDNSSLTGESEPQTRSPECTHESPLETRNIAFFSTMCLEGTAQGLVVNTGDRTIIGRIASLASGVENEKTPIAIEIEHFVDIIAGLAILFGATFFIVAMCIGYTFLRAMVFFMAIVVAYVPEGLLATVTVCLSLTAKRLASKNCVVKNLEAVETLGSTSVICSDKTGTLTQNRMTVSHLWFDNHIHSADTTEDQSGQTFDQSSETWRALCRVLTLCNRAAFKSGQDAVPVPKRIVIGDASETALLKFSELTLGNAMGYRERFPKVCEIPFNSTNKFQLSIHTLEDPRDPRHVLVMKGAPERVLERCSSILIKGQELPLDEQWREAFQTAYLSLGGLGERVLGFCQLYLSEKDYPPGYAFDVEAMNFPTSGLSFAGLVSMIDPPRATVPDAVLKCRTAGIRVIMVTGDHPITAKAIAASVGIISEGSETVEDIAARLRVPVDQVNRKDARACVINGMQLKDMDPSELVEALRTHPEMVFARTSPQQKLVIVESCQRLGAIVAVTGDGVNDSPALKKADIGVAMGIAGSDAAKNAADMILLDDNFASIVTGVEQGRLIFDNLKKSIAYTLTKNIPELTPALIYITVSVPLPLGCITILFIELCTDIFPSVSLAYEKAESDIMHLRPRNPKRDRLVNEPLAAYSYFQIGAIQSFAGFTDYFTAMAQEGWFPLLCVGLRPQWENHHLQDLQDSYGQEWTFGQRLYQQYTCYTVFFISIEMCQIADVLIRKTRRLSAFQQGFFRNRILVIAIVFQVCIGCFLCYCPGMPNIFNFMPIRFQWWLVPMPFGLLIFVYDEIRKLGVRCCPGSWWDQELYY
Sequence of H^+,K^+-ATPase Y799A (Sus scrofa, UniProt P19156, Y800A) (P18434 whole entry partner): as the sequence (P18434 whole entry partner) above

SMILES: Cc1nc2c(OCc3ccccc3)cccn2c1CC#N [SCH28080]
- Ki [1]: > 40 µM
- affinity (in words) [1]: almost no affinity
- fold low apparent affinity (IC 50) (H^+,K^+-ATPase Y799A [2]): ~ 100 fold and 100 fold
- effect on affinity (in words) (H^+,K^+-ATPase Y799F [3]): negligible effects
- protonation [4]: approximately 2.5%
- fold reduced affinity (H^+,K^+-ATPase L809F [5]; L809F vs wild-type, previously reported): more than 90 fold
- Ki (H^+,K^+-ATPase L809F [5]; L809F): 6.15 µM

SMILES: N#CCc1cnc2c(OCc3ccccc3)cccn12 [SCH-Me^−]
- Ki (H^+,K^+-ATPase D136L): 5.4 ± 0.5 µM
- -fold increase in K i compared with wild-type (H^+,K^+-ATPase D136L; D136L): 0.5 fold
- Ki (H^+,K^+-ATPase Y799F [6]): 31 ± 3 µM
- -fold increase in K i compared with wild-type (H^+,K^+-ATPase Y799F [6]; Y799F): 2.8 fold
- Ki (H^+,K^+-ATPase D137A): 61 ± 7 µM
- -fold increase in K i compared with wild-type (H^+,K^+-ATPase D137A; D137A): 5.5 fold
- Ki (H^+,K^+-ATPase Y140L): 3.7 ± 0.4 µM
- -fold increase in K i compared with wild-type (H^+,K^+-ATPase Y140L; Y140L): 0.3 fold
- Ki (H^+,K^+-ATPase N138F): 320 ± 300 µM
- -fold increase in K i compared with wild-type (H^+,K^+-ATPase N138F; N138F): 29 fold
- Ki (H^+,K^+-ATPase L139I): 2.3 ± 0.3 µM
- -fold increase in K i compared with wild-type (H^+,K^+-ATPase L139I; L139I): 0.2 fold
- Ki (H^+,K^+-ATPase L139F): 13 ± 1 µM
- -fold increase in K i compared with wild-type (H^+,K^+-ATPase L139F; L139F): 1.2 fold
- Ki (H^+,K^+-ATPase A335G): 1.6 ± 0.2 µM
- -fold increase in K i compared with wild-type (H^+,K^+-ATPase A335G; A335G): 0.15 fold
- Ki (H^+,K^+-ATPase N138I): 0.95 ± 0.23 µM
- -fold increase in K i compared with wild-type (H^+,K^+-ATPase N138I; N138I): 0.09 fold
- Ki (H^+,K^+-ATPase D136F): 6.7 ± 0.5 µM
- -fold increase in K i compared with wild-type (H^+,K^+-ATPase D136F; D136F): 0.6 fold
- Ki (H^+,K^+-ATPase L141I): 7.3 ± 0.8 µM
- -fold increase in K i compared with wild-type (H^+,K^+-ATPase L141I; L141I): 0.7 fold
- Ki (H^+,K^+-ATPase D136I): 6.8 ± 0.6 µM
- -fold increase in K i compared with wild-type (H^+,K^+-ATPase D136I; D136I): 0.6 fold
- Ki (H^+,K^+-ATPase D137I): 170 ± 40 µM
- -fold increase in K i compared with wild-type (H^+,K^+-ATPase D137I; D137I): 16 fold
- Ki (H^+,K^+-ATPase Y140I): 5 ± 0.8 µM
- -fold increase in K i compared with wild-type (H^+,K^+-ATPase Y140I; Y140I): 0.5 fold
- IC50 (H^+,K^+-ATPase): 54 µM
- Ki (H^+,K^+-ATPase L139A): 8.7 ± 0.7 µM
- -fold increase in K i compared with wild-type (H^+,K^+-ATPase L139A; L139A): 0.8 fold
- -fold increase in K i compared with wild-type (H^+,K^+-ATPase WT): 1.0 fold
- Ki (H^+,K^+-ATPase WT; global fitting, mean ± SEM): 11 ± 0.1 µM
- Ki [7]: 4200 ± 2300 µM
- -fold increase in K i compared with wild-type ([7]; A335C/C813A): 382 fold
- Ki (H^+,K^+-ATPase N138A): 0.56 ± 0.08 µM
- -fold increase in K i compared with wild-type (H^+,K^+-ATPase N138A; N138A): 0.05 fold
- Ki (H^+,K^+-ATPase N138L): 23 ± 7 µM
- -fold increase in K i compared with wild-type (H^+,K^+-ATPase N138L; N138L): 2.1 fold
- Ki (H^+,K^+-ATPase D137L): 270 ± 100 µM
- -fold increase in K i compared with wild-type (H^+,K^+-ATPase D137L; D137L): 25 fold
- Ki (H^+,K^+-ATPase Y140A): 13 ± 1 µM
- -fold increase in K i compared with wild-type (H^+,K^+-ATPase Y140A; Y140A): 1.2 fold
- Ki (H^+,K^+-ATPase Y140F): 21 ± 3 µM
- -fold increase in K i compared with wild-type (H^+,K^+-ATPase Y140F; Y140F): 1.9 fold
- Ki (H^+,K^+-ATPase L809F [8]): 110 ± 20 µM
- -fold increase in K i compared with wild-type (H^+,K^+-ATPase L809F [8]; L809F): 10 fold
- Ki (H^+,K^+-ATPase D136A): 11 ± 1 µM
- -fold increase in K i compared with wild-type (H^+,K^+-ATPase D136A; D136A): 1.0 fold
- Ki (H^+,K^+-ATPase D137F): 34 ± 7 µM
- -fold increase in K i compared with wild-type (H^+,K^+-ATPase D137F; D137F): 3.1 fold
- Ki (H^+,K^+-ATPase Y799A [9]): 740 ± 170 µM
- -fold increase in K i compared with wild-type (H^+,K^+-ATPase Y799A [9]; Y799A): 67 fold
